Patent publication US7750165B2, “Metaxalone polymorphs” (Fresenius Kabi Oncology Limited, priority 2005, dated 2010)
Where “and” joins values, the source holds several entries; their conditions need not be identical. Equal entries are not always repeated. Where two headings read alike, the source gives them in different places.

Assay: Bioavailability and pharmacokinetic study of crystalline Forms A and B of metaxalone, oral suspension, plasma by HPLC
Assay type: in vivo, female wistar rat
Set-up: AUCin / AUCt / AUCt Mean / AUCin Mean: unit not given here
Method: A study was undertaken to compare the bioavailability and pharmacokinetic profile of the two crystalline Forms A and B of metaxalone in female wistar rat under fasting condition. A suspension of metaxalone form A and Form B having a concentration of 15.0 mg/ml was prepared using 0.1% Tween-80 in 0.25% carboxy methyl cellulose (CMC). The formulation was used for dosing as such without any further dilution.
Twelve rats were taken, out of which six rats were administered form A crystals of Metaxalone and other six rats were adminstered form B crystals of Metaxalone, in different injection volumes based on body weight, resulting in dose of 150 mg/kg. A total thirteen (0.6 ml) blood samples were collected from each rat into prelabeled tubes containing EDTA solution, by retro-orbital bleeding under mild ether anesthesia. The blood samples were withdrawn at time points of 0 (prior to dosing), 15, 30 mins, 1, 1.5, 2.0, 4.0, 6.0, 8.0, 10.0, 12.0, 24 and 48 hrs post administration. The samples were centrifuged at 4000 rpm for 10 mins at room temperature. Seperated plasma samples were transferred into prelabeled tubes and stored upright in cyrobox. These cyroboxes were then transfered into a deep freezer maintained at −20° C. for the final storage until the completion of analysis.
HPLC system of Shimadzu LC—2010CHT series equipped with shimadzu UV-VIS detector, analytical column YMC Pack ODS C-18, 5 μm, (150×4.6 mm) and a data acquisition system (LC solution software) were used for the quantitative determination of metaxalone in rat plasma.
The results were plotted using the conventional AUC method to calculate pharmacokinetic ters (Cmax, Tmax and AUC (area under the curve, a measure of total bioavailability). The pharmacokinetic results for the crystalline form A and B are summarized in Table-V

[1] = Form A relative to Form B, per rat number 1-6, oral 150 mg/kg, 150 mg/kg
[2] = Mean of N=6 rats, female wistar rat, oral 150 mg/kg, 150 mg/kg
[3] = female wistar rats, fasting, oral 150 mg/kg, plasma, Mean ± SD, 150 mg/kg
[4] = female wistar rats, fasting, oral 150 mg/kg, plasma, Mean ± SD, listed as Metaxalone- Form A, 150 mg/kg
[5] = female wistar rats, oral 150 mg/kg
[6] = female, Wistar, rat, plasma, po, 150 mg/kg, female wistar rats, fasting, oral 150 mg/kg, Mean ± SD
[7] = individual rats 1-6, female wistar rat, oral 150 mg/kg, 150 mg/kg
[8] = individual rats 1-6, female wistar rat, oral 150 mg/kg, 150 mg/kg, in h
[9] = individual rats 1-6, female wistar rat, oral 150 mg/kg, 150 mg/kg, in µg/mL
[10] = female wistar rats, fasting, oral 150 mg/kg, plasma, Mean ± SD (second Table IV), listed as Metaxalone- Form B, 150 mg/kg
[11] = female wistar rats, fasting, oral 150 mg/kg, plasma, Mean ± SD, listed as Metaxalone- Form B, 150 mg/kg

With Cc1cc(C)cc(OCC2CNC(=O)O2)c1 (single isomer, unassigned) [Form A, 5-(3′,5′-dimethylphenoxy)methyl-2-oxazolidinone] the “AUCin A/B %” value [1] was 328.5% and 110.5% and 69.0% and 37.7% and 291.3% and 120.9%, the “AUCt A/B %” value [1] was 196.7% and 84.4% and 73.7% and 40.4% and 255.3% and 88.1% and the “Cmax A/B %” value [1] was 111.2% and 77.4% and 89.4% and 90.9% and 103.7% and 85.0%. The “AUCin Mean” value [2] was 451.461, the Clobs [3] was 6.164 ± 2.122 mL/min/kg and the Clobs (female wistar rats, fasting, oral 150 mg/kg, plasma, Mean ± SD, listed as Form-A, 150 mg/kg) was 6.164 ± 2.122 mL/min/kg. It also gave a Clobs [4] of 6.164 ± 2.122 mL/min/kg, a Lambda z [4] of 0.119 ± 0.07 h⁻¹ and a Vzobs [4] of 3.46602 ± 0.9788 L/kg. For the same compound, the “bioavailability, based on the observed Cmax values” [5] was “bioavailable”, the AUC(0-t) (female, Wistar, rat, plasma, po, 150 mg/kg, Mean of N=6 rats, female wistar rat, oral 150 mg/kg, read-out: AUCt Mean) was 325 µg·h/mL and the Cmax (female, Wistar, rat, plasma, po, 150 mg/kg, Mean of N=6 rats, female wistar rat, oral 150 mg/kg, read-out: Cmax Mean) was 37700 ng/mL. It also gave a Tmax (female, Wistar, rat, plasma, po, 150 mg/kg, Mean of N=6 rats, female wistar rat, oral 150 mg/kg, read-out: Tmax Mean) of 1.5 h, an AUC(0-inf) [6] of 451 ± 166 µg·h/mL and an MRT last [6] of 5.49 ± 1.8 h. It also gave a half-life [6] of 7.25 ± 2.9 h, an AUC(0-inf) (female, Wistar, rat, plasma, po, 150 mg/kg, female wistar rats, fasting, oral 150 mg/kg, Mean ± SD (second Table IV)) of 451 ± 166 µg·h/mL and an AUC(0-t) (female, Wistar, rat, plasma, po, 150 mg/kg, female wistar rats, fasting, oral 150 mg/kg, plasma, Mean ± SD (second Table IV), read-out: AUClast) of 325 ± 110 µg·h/mL. It also gave an AUC(0-t) (female, Wistar, rat, plasma, po, 150 mg/kg, female wistar rats, fasting, oral 150 mg/kg, plasma, Mean ± SD, read-out: AUClast) of 325 ± 110 µg·h/mL, a Cmax (female, Wistar, rat, plasma, po, 150 mg/kg, female wistar rats, fasting, oral 150 mg/kg, plasma, Mean ± SD, read-out: Cmax) of 37700 ± 4100 ng/mL and a Tmax (female, Wistar, rat, plasma, po, 150 mg/kg, female wistar rats, fasting, oral 150 mg/kg, plasma, Mean ± SD, read-out: Tmax) of 1.5 ± 0.3 h. For the same compound, the MRT last (female, Wistar, rat, plasma, po, 150 mg/kg, female wistar rats, oral 150 mg/kg, mean ± SD, unit inferred) was 5.49 ± 1.8 h, the Cmax (female, Wistar, rat, plasma, po, 150 mg/kg, individual rats 1-6, female wistar rat, oral 150 mg/kg, read-out: Cmax) was 43100 ng/mL and the AUCin [7] was 646.72 and 398.52 and 380.50 and 267.03 and 667.12 and 348.88. For the same compound, the AUCt [7] was 371.39 and 259.03 and 283.70 and 252.67 and 530.31 and 251.62, the Tmax [8] was 2.00 and 1.00 and the Cmax [9] was 33.77 and 38.46 and 39.32 and 39.57 and 31.90.

In the case of Cc1cc(C)cc(OCC2CNC(=O)O2)c1 (single isomer, unassigned) [Form B, 5-(3′,5′-dimethylphenoxy)methyl-2-oxazolidinone], the “AUCt Mean” value [2] is reported as 333.329, the “Tmax Mean” value (Mean of N=6 rats, female wistar rat, oral 150 mg/kg, 150 mg/kg, in h) is reported as 2.083 and the “Cmax Mean” value (Mean of N=6 rats, female wistar rat, oral 150 mg/kg, 150 mg/kg, in µg/mL) is reported as 40.735. The AUCinf [10] was 389.07 ± 200.6 µg·h/mL, the AUClast [10] was 333.32 ± 159.9 µg·h/mL and the AUCinf [3] was 389.07±200.6 hrμg/ml. For the same compound, the AUClast [3] was 333.32±159.9 hrμg/ml, the Clobs [3] was 7.8787 ± 3.578 mL/min/kg and the Cmax [3] was 40730 ± 2800 ng/mL. For the same compound, the “Half Life” value [3] was 4.49 ± 1.7 h, the MRTlast [3] was 5.50 ± 1.8 h and the Tmax [3] was 2.08 ± 1.4 h. It also gave a Clobs [11] of 7.8787 ± 3.578 mL/min/kg, a Lambda z [11] of 0.172 ± 0.05 h⁻¹ and a Vzobs [11] of 2.65418 ± 0.4222 L/kg. For the same compound, the “bioavailability, based on the observed Cmax values” [5] was “bioavailable”, the MRTlast (female wistar rats, oral 150 mg/kg, plasma, mean ± SD, unit not given, 150 mg/kg, in h) was 5.50±1.8 and the AUC (female, Wistar, rat, plasma, po, 150 mg/kg, Mean of N=6 rats, female wistar rat, oral 150 mg/kg, read-out: AUCin Mean) was 389 µg·h/mL. The Cmax (female, Wistar, rat, plasma, po, 150 mg/kg, female wistar rats, oral 150 mg/kg, plasma, mean ± SD, no unit printed for this value, read-out: mean Cmax) was 40700 ± 2800 ng/mL, the AUCin [7] was 196.86 and 360.78 and 551.70 and 707.50 and 229.04 and 288.56 and the AUCt [7] was 188.83 and 306.89 and 384.99 and 626.04 and 207.73 and 285.51. For the same compound, the Tmax [8] was 1.00 and 4.00 and 1.50 and the Cmax [9] was 38.75 and 43.65 and 43.04 and 43.27 and 38.16 and 37.54.
